Source: ChEMBL document CHEMBL5236662, “Synthesis and biological evaluation of tert-butyl ester and ethyl ester prodrugs of L-γ-methyleneglutamic acid amides for cancer” (Bioorg Med Chem, 2023)

Tested on: MCF7
Test: Antiproliferative activity against human MCF7 cells assessed as inhibition of cell growth incubated for 72 hrs by Hoechst 33342/propidium iodide staining based fluorescence analysis
Assay type: functional
Conditions: MCF7, 72 h

SMILES	IC50
C=C(C[C@H](NC(=O)OC(C)(C)C)C(=O)OC(C)(C)C)C(N)=O	< 1000 µM
C=C(C[C@H](NC(=O)OC(C)(C)C)C(=O)OC(C)(C)C)C(=O)NC1CC1	< 1000 µM
C=C(C[C@H](NC(=O)OC(C)(C)C)C(=O)OCC)C(=O)Nc1ccc(F)cc1	> 1000 µM
C=C(C[C@H](NC(=O)OC(C)(C)C)C(=O)OC(C)(C)C)C(=O)NCc1ccc([N+](=O)[O-])cc1	> 1000 µM
C=C(C[C@H](NC(=O)OC(C)(C)C)C(=O)OCC)C(=O)NCc1ccc([N+](=O)[O-])cc1	> 1000 µM
C=C(C[C@H](NC(=O)OC(C)(C)C)C(=O)OCC)C(=O)N1CCCCC1	> 1000 µM
C=C1C[C@@H](C(=O)OCC)N(C(=O)OC(C)(C)C)C1=O	> 1000 µM
C=C(C[C@H](NC(=O)OC(C)(C)C)C(=O)OCC)C(=O)Nc1ccccc1	> 1000 µM
C=C(C[C@H](NC(=O)OC(C)(C)C)C(=O)OC(C)(C)C)C(=O)Nc1ccc(Cl)cc1	> 1000 µM
C=C1C[C@@H](C(=O)O)NC1=O	> 1000 µM
C=C(C[C@H](NC(=O)OC(C)(C)C)C(=O)OC(C)(C)C)C(=O)NCc1ccc(F)cc1	> 1000 µM
C=C(C[C@H](NC(=O)OC(C)(C)C)C(=O)OCC)C(=O)NCc1ccccc1	> 1000 µM
C=C(C[C@H](NC(=O)OC(C)(C)C)C(=O)OC(C)(C)C)C(=O)NCc1ccccc1	> 1000 µM
CC/C(=C(\c1ccccc1)c1ccc(OCCN(C)C)cc1)c1ccccc1 [TAMOXIFEN]	< 1000 µM
C=C(C[C@H](NC(=O)OC(C)(C)C)C(=O)OCC)C(N)=O	> 1000 µM

Tested on: SK-BR-3
Test: Antiproliferative activity against human SK-BR-3 cells assessed as inhibition of cell growth incubated for 72 hrs by Hoechst 33342/propidium iodide staining based fluorescence analysis
Assay type: functional
Conditions: SK-BR-3, 72 h

SMILES	IC50
C=C(C[C@H](NC(=O)OC(C)(C)C)C(=O)OC(C)(C)C)C(N)=O	< 1000 µM
C=C(C[C@H](NC(=O)OC(C)(C)C)C(=O)OC(C)(C)C)C(=O)NC1CC1	< 1000 µM
C=C(C[C@H](NC(=O)OC(C)(C)C)C(=O)OCC)C(=O)Nc1ccc(F)cc1	< 1000 µM
C=C(C[C@H](NC(=O)OC(C)(C)C)C(=O)OC(C)(C)C)C(=O)NCc1ccc([N+](=O)[O-])cc1	< 1000 µM
C=C(C[C@H](NC(=O)OC(C)(C)C)C(=O)OCC)C(=O)NCc1ccc([N+](=O)[O-])cc1	< 1000 µM
C=C(C[C@H](NC(=O)OC(C)(C)C)C(=O)OCC)C(=O)N1CCCCC1	> 1000 µM
C=C1C[C@@H](C(=O)OCC)N(C(=O)OC(C)(C)C)C1=O	> 1000 µM
C=C(C[C@H](NC(=O)OC(C)(C)C)C(=O)OCC)C(=O)Nc1ccccc1	> 1000 µM
C=C(C[C@H](NC(=O)OC(C)(C)C)C(=O)OC(C)(C)C)C(=O)Nc1ccc(Cl)cc1	> 1000 µM
C=C1C[C@@H](C(=O)O)NC1=O	> 1000 µM
C=C(C[C@H](NC(=O)OC(C)(C)C)C(=O)OC(C)(C)C)C(=O)NCc1ccc(F)cc1	< 1000 µM
C=C(C[C@H](NC(=O)OC(C)(C)C)C(=O)OCC)C(=O)NCc1ccccc1	< 1000 µM
C=C(C[C@H](NC(=O)OC(C)(C)C)C(=O)OC(C)(C)C)C(=O)NCc1ccccc1	< 1000 µM
CC/C(=C(\c1ccccc1)c1ccc(OCCN(C)C)cc1)c1ccccc1 [TAMOXIFEN]	< 1000 µM
C=C(C[C@H](NC(=O)OC(C)(C)C)C(=O)OCC)C(N)=O	< 1000 µM

Tested on: MDA-MB-231
Test: Antiproliferative activity against human MDA-MB-231 cells assessed as inhibition of cell growth incubated for 72 hrs by Hoechst 33342/propidium iodide staining based fluorescence analysis
Assay type: functional
Conditions: MDA-MB-231, 72 h

SMILES	IC50
C=C(C[C@H](NC(=O)OC(C)(C)C)C(=O)OC(C)(C)C)C(N)=O	> 1000 µM
C=C(C[C@H](NC(=O)OC(C)(C)C)C(=O)OC(C)(C)C)C(=O)NC1CC1	< 1000 µM
C=C(C[C@H](NC(=O)OC(C)(C)C)C(=O)OCC)C(=O)Nc1ccc(F)cc1	> 1000 µM
C=C(C[C@H](NC(=O)OC(C)(C)C)C(=O)OC(C)(C)C)C(=O)NCc1ccc([N+](=O)[O-])cc1	< 1000 µM
C=C(C[C@H](NC(=O)OC(C)(C)C)C(=O)OCC)C(=O)NCc1ccc([N+](=O)[O-])cc1	> 1000 µM
C=C(C[C@H](NC(=O)OC(C)(C)C)C(=O)OCC)C(=O)N1CCCCC1	> 1000 µM
C=C1C[C@@H](C(=O)OCC)N(C(=O)OC(C)(C)C)C1=O	> 1000 µM
C=C(C[C@H](NC(=O)OC(C)(C)C)C(=O)OCC)C(=O)Nc1ccccc1	> 1000 µM
C=C(C[C@H](NC(=O)OC(C)(C)C)C(=O)OC(C)(C)C)C(=O)Nc1ccc(Cl)cc1	> 1000 µM
C=C1C[C@@H](C(=O)O)NC1=O	> 1000 µM
C=C(C[C@H](NC(=O)OC(C)(C)C)C(=O)OC(C)(C)C)C(=O)NCc1ccc(F)cc1	< 1000 µM
C=C(C[C@H](NC(=O)OC(C)(C)C)C(=O)OCC)C(=O)NCc1ccccc1	> 1000 µM
C=C(C[C@H](NC(=O)OC(C)(C)C)C(=O)OC(C)(C)C)C(=O)NCc1ccccc1	< 1000 µM
CC/C(=C(\c1ccccc1)c1ccc(OCCN(C)C)cc1)c1ccccc1 [TAMOXIFEN]	< 1000 µM
C=C(C[C@H](NC(=O)OC(C)(C)C)C(=O)OCC)C(N)=O	< 1000 µM

Tested on: not listed separately
Test: (§1) Cytotoxicity against human MCF-10A cells assessed as inhibition of cell growth incubated for 72 hrs by Hoechst 33342/propidium iodide staining based fluorescence analysis
Assay type: toxicity
Conditions: human, MCF-10A cells

SMILES	IC50 at 72 h
C=C(C[C@H](N)C(=O)O)C(N)=O	> 1000 µM
C=C(C[C@H](NC(=O)OC(C)(C)C)C(=O)OC(C)(C)C)C(N)=O	> 1000 µM
C=C(C[C@H](NC(=O)OC(C)(C)C)C(=O)OC(C)(C)C)C(=O)NC1CC1	> 1000 µM
C=C(C[C@H](NC(=O)OC(C)(C)C)C(=O)OCC)C(=O)Nc1ccc(F)cc1	> 1000 µM
C=C(C[C@H](NC(=O)OC(C)(C)C)C(=O)OC(C)(C)C)C(=O)NCc1ccc([N+](=O)[O-])cc1	> 1000 µM
C=C(C[C@H](NC(=O)OC(C)(C)C)C(=O)OCC)C(=O)NCc1ccc([N+](=O)[O-])cc1	> 1000 µM
C=C(C[C@H](N)C(=O)O)C(=O)Nc1ccc(Cl)cc1	> 1000 µM
C=C(C[C@H](NC(=O)OC(C)(C)C)C(=O)OCC)C(=O)N1CCCCC1	> 1000 µM
C=C1C[C@@H](C(=O)OCC)N(C(=O)OC(C)(C)C)C1=O	> 1000 µM
C=C(C[C@H](NC(=O)OC(C)(C)C)C(=O)OCC)C(=O)Nc1ccccc1	> 1000 µM
C=C(C[C@H](NC(=O)OC(C)(C)C)C(=O)OC(C)(C)C)C(=O)Nc1ccc(Cl)cc1	> 1000 µM
C=C1C[C@@H](C(=O)O)NC1=O	> 1000 µM
C=C(C[C@H](NC(=O)OC(C)(C)C)C(=O)OC(C)(C)C)C(=O)NCc1ccc(F)cc1	> 1000 µM
C=C(C[C@H](NC(=O)OC(C)(C)C)C(=O)OCC)C(=O)NCc1ccccc1	> 1000 µM
C=C(C[C@H](NC(=O)OC(C)(C)C)C(=O)OC(C)(C)C)C(=O)NCc1ccccc1	> 1000 µM
C=C(C[C@H](NC(=O)OC(C)(C)C)C(=O)OCC)C(N)=O	> 1000 µM

Tested on: MCF-10A
Test: as §1
Assay type: toxicity
Conditions: mcf-10a

SMILES	IC50
CC/C(=C(\c1ccccc1)c1ccc(OCCN(C)C)cc1)c1ccccc1 [TAMOXIFEN]	> 1000 µM

Tested on: not listed separately
Test: (§2) Cytotoxicity against human MCF-10A cells assessed as inhibition of cell growth incubated for 24 hrs by Hoechst 33342/propidium iodide staining based fluorescence analysis
Assay type: toxicity
Conditions: human, MCF-10A cells

SMILES	IC50 at 24 h
C=C(C[C@H](N)C(=O)O)C(N)=O	> 1000 µM
C=C(C[C@H](N)C(=O)O)C(=O)Nc1ccc(Cl)cc1	> 1000 µM

Tested on: MCF-10A
Test: as §2
Assay type: toxicity
Conditions: mcf-10a

SMILES	IC50
CC/C(=C(\c1ccccc1)c1ccc(OCCN(C)C)cc1)c1ccccc1 [TAMOXIFEN]	> 1000 µM
